Measurements: patent US20210346329A1, “TCA CYCLE INTERMEDIATES AND METHODS OF USE THEREOF” (IMBRIA PHARMACEUTICALS, INC., priority 2018, published 2021)
“And” between values parts separate entries of the source, which are not always exact repeats. Identical values can stand only once. Like-named read-outs stand apart in the source and are kept apart here.

Source text: Concentrations versus time data are plotted in FIG. 1 through FIG. 6.
[1] = SC 10 mg/kg, individual rats 776, 777, 778, 10 mg/kg
[2] = SC 50 mg/kg, individual rats 779, 780, 781, 50 mg/kg
[3] = SC 100 mg/kg, individual rats 782, 783, 784, 100 mg/kg
[4] = SC 100 mg/kg, individual rats 782, 783, 100 mg/kg

tmax (SC 10 mg/kg, individual rats 776, 777, 778): 15 min
Bioavailability (SC 10 mg/kg, individual rats 776, 777, 778, vs average IV dose-normalized AUClast, 10 mg/kg): 98.9% and 47.7% and 76.7%
Cmax [1]: 5090 ng/mL and 2090 ng/mL and 3260 ng/mL
MRTlast [1]: 30.2 min and 29.3 min and 31.6 min
AUClast (SC 10 mg/kg, mean): 1604 ng·h/mL
Cmax (SC 10 mg/kg, mean): 3480 ± 1512 ng/mL
MRTlast (SC 10 mg/kg, mean): 30.4 min
tmax (SC 10 mg/kg, mean): 15 min
Bioavailability (SC 10 mg/kg, mean, vs average IV dose-normalized AUClast): 74.4±25.7%
Dose-normalized AUClast (SC 10 mg/kg, mean, 10 mg/kg): 160 ± 55.4 kg·ng·h/mL/mg
Dose-normalized AUClast (SC 10 mg/kg, mean, listed as 13C4-Succinate, 10 mg/kg): 160 kg·ng·h/mL/mg
Time post dosing at which maximum plasma concentrations were observed (SC 50 mg/kg): 15 min
Plasma concentration (SC 50 mg/kg, 0.50 hr, mean): 12117 ng/mL
Plasma concentration (SC 50 mg/kg, 1.0 hr, individual rats 779, 780, 781, 50 mg/kg): 1020 ng/mL and 2420 ng/mL and 2020 ng/mL
Plasma concentration (SC 50 mg/kg, 1.0 hr, mean): 1820 ng/mL
Plasma concentration (SC 50 mg/kg, 2.0 hr, individual rats 779, 780, 781, 50 mg/kg): 102 ng/mL and 163 ng/mL and 122 ng/mL
Plasma concentration (SC 50 mg/kg, 2.0 hr, mean): 129 ng/mL
Plasma concentration (SC 50 mg/kg, 4.0 hr, individual rats 779, 780, 781, 50 mg/kg): 15.1 ng/mL and 10.3 ng/mL and 12.3 ng/mL
Plasma concentration (SC 50 mg/kg, 4.0 hr, mean): 12.6 ng/mL
Plasma concentration (SC 50 mg/kg, 8.0 hr, mean): 18.8 ng/mL
tmax (SC 50 mg/kg, individual rats 779, 780, 781): 15 min
Bioavailability (SC 50 mg/kg, individual rats 779, 780, 781, vs average IV dose-normalized AUClast, 50 mg/kg): 78.0% and 116% and 98.7%
MRTlast [2]: 33.5 min and 31.8 min and 30.3 min
AUClast (SC 50 mg/kg, mean): 10511 ng·h/mL
Cmax (SC 50 mg/kg, mean): 17333 ± 2214 ng/mL
MRTlast (SC 50 mg/kg, mean): 31.9 min
tmax (SC 50 mg/kg, mean): 15 min
Bioavailability (SC 50 mg/kg, mean, vs average IV dose-normalized AUClast): 97.6±19.0%
Dose-normalized AUClast (SC 50 mg/kg, mean, 50 mg/kg): 210 ± 41.0 kg·ng·h/mL/mg
Dose-normalized AUClast (SC 50 mg/kg, mean, listed as 13C4-Succinate, 50 mg/kg): 210 kg·ng·h/mL/mg
Time post dosing at which maximum plasma concentrations were observed (SC 100 mg/kg): 15 min
Plasma concentration (SC 100 mg/kg, 0.50 hr, mean): 21200 ng/mL
Plasma concentration (SC 100 mg/kg, 1.0 hr, individual rats 782, 783, 784, 100 mg/kg): 6840 ng/mL and 4980 ng/mL and 7750 ng/mL
Plasma concentration (SC 100 mg/kg, 1.0 hr, mean): 6523 ng/mL
Plasma concentration (SC 100 mg/kg, 2.0 hr, individual rats 782, 783, 784, 100 mg/kg): 364 ng/mL and 435 ng/mL and 779 ng/mL
Plasma concentration (SC 100 mg/kg, 2.0 hr, mean): 526 ng/mL
Plasma concentration (SC 100 mg/kg, 4.0 hr, individual rats 782, 783, 784, 100 mg/kg): 103 ng/mL and 40.8 ng/mL and 52.9 ng/mL
Plasma concentration (SC 100 mg/kg, 4.0 hr, mean): 65.6 ng/mL
Plasma concentration (SC 100 mg/kg, 8.0 hr, mean): 25.9 ng/mL
tmax (SC 100 mg/kg, individual rats 782, 783, 784): 15 min
Bioavailability (SC 100 mg/kg, individual rats 782, 783, 784, vs average IV dose-normalized AUClast, 100 mg/kg): 115% (2×) and 72.0%
MRTlast [3]: 35.8 min and 37.7 min and 39.6 min
AUC∞ [4]: 24719 ng·h/mL and 15530 ng·h/mL
t1/2 [4]: 84 min and 44.8 min
AUClast (SC 100 mg/kg, mean): 21630 ng·h/mL
AUC∞ (SC 100 mg/kg, mean): 20124 ng·h/mL
Cmax (SC 100 mg/kg, mean): 31000 ± 7451 ng/mL
Dose-normalized AUC∞ (SC 100 mg/kg, mean): 201 kg·ng·h/mL/mg
MRTlast (SC 100 mg/kg, mean): 37.7 min
t1/2 (SC 100 mg/kg, mean): 64.2 min
tmax (SC 100 mg/kg, mean): 15 min
Bioavailability (SC 100 mg/kg, mean, vs average IV dose-normalized AUClast): 100±24.6%
Dose-normalized AUClast (SC 100 mg/kg, mean, 100 mg/kg): 216 ± 52.9 kg·ng·h/mL/mg
Dose-normalized AUClast (SC 100 mg/kg, mean, listed as 13C4-Succinate, 100 mg/kg): 216 kg·ng·h/mL/mg
SMILES: O=[13C](O)[13CH2][13CH2][13C](=O)O [^13C4-succinate]
AUClast [1]: 2131 ng·h/mL and 1027 ng·h/mL and 1653 ng·h/mL
Plasma concentration (SC 50 mg/kg, 0.50 hr, individual rats 779, 780, 781, 50 mg/kg): 9750 ng/mL and 15500 ng/mL and 11100 ng/mL
AUClast [2]: 8405 ng·h/mL and 12496 ng·h/mL and 10632 ng·h/mL
Cmax [2]: 14800 ng/mL and 18300 ng/mL and 18900 ng/mL
Dose-normalized AUClast [2]: 168 kg·ng·h/mL/mg and 250 kg·ng·h/mL/mg and 213 kg·ng·h/mL/mg
Plasma concentration (SC 100 mg/kg, 0.50 hr, individual rats 782, 783, 784, 100 mg/kg): 24500 ng/mL and 13900 ng/mL and 25200 ng/mL
AUClast [3]: 24683 ng·h/mL and 15518 ng·h/mL and 24689 ng·h/mL
Cmax [3]: 37900 ng/mL and 23100 ng/mL and 32000 ng/mL
Dose-normalized AUClast [3]: 247 hr · kg · ng/mL/mg (2×) and 155 hr · kg · ng/mL/mg
Dose-normalized AUC∞ [4]: 247 kg·ng·h/mL/mg and 155 kg·ng·h/mL/mg
Change of exposure with increasing dose (SC 10, 50 and 100 mg/kg): nonlinear increase in exposure with increasing dose
Adverse reactions (subcutaneous dosing, 10, 50 and 100 mg/kg): No adverse reactions were observed
